Consider ten molecules from ChEMBL document CHEMBL1201862, “PubChem BioAssay data set” (2004).

Some test systems named below: NCI/ADR-RES; MOLT-4; OVCAR-3; SK-MEL-2; COLO 205; SK-OV-3; IGROV-1; A498; KM12; DU-145; U-251; OVCAR-8; ACHN; SF-268; SF-295; HOP-92; 786-0; A549; MDA-MB-435; M14.
Assay in all cases: DTP human tumour cell line panel, 48 h

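In this assay, cells in 96-well plates receive the compound at five concentrations for 48 hours. Endpoints are linearly interpolated between the surrounding concentrations. The concentration for 50% growth inhibition is given as GI50.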 Active and inactive are the calls of the source. Cut-off read from the data, not from the text of the source: active = GI50 up to about 1.1 µM and inactive = higher. A value given as a limit tells only on which side of the number the result lay.

Take `COC(=O)C1CCC(=S)N1C(C)=O` (stereo unspecified): the GI50 in the test on NCI/ADR-RES, with MOLT-4, in the test with OVCAR-3, in the test on SK-MEL-2, in the test with COLO 205 and in the test with SK-OV-3 was > 100 µM (inactive) in each case. Further, the GI50 in the test with IGROV-1, in the test with A498, in the test on KM12, with DU-145, in the test on U-251 and in the test on OVCAR-8 was > 100 µM (inactive) throughout. Further, the GI50 with ACHN, in the test with SF-268, with SF-295, in the test with HOP-92, in the test with 786-0 and with A549 was > 100 µM (inactive) throughout. Besides, the GI50 in the test on MDA-MB-435 and with M14 was > 100 µM (inactive) each time.
For the molecule `O=C1NCN(c2ccccc2)C12CCN(CCCN1CCN(CCOC(c3ccccc3)c3ccccc3)CC1)CC2`, the GI50 is 4.54 µM (inactive) in the test with NCI/ADR-RES; 2.13 µM (inactive) with MOLT-4; 3.54 µM (inactive) in the test with OVCAR-3; 3.11 µM (inactive) in the test on SK-MEL-2; 1.18 µM (inactive) with COLO 205; 3.75 µM (inactive) in the test on SK-OV-3. For the same molecule, the GI50 in the test with IGROV-1 was 4.03 µM (inactive); in the test with A498, 3.36 µM (inactive); in the test on KM12 it was 2.87 µM (inactive); in the test on DU-145, 3.59 µM (inactive); in the test on U-251 it was 4.07 µM (inactive); in the test with OVCAR-8, 3.33 µM (inactive). In addition, the GI50 with ACHN was 2.5 µM (inactive); with SF-268, 2.4 µM (inactive); in the test on SF-295 it was 2.69 µM (inactive); in the test with HOP-92 it was 1.93 µM (inactive); with 786-0 it was 0.753 µM (active); in the test on A549, 4.14 µM (inactive). For the same molecule, the values for the GI50 with MDA-MB-435 and in the test on M14 were 0.923 µM (active) and 1.08 µM (active), respectively.
In the case of `CCCCCC(=O)Nc1[nH]cnc1C(N)=O`, the GI50 in the test on NCI/ADR-RES, with MOLT-4, with OVCAR-3, in the test on SK-MEL-2, in the test with COLO 205 and in the test with SK-OV-3 was > 100 µM (inactive) throughout. The GI50 with IGROV-1, in the test with A498, with KM12, with DU-145, with U-251 and with OVCAR-8 was > 100 µM (inactive) each time. Further, the GI50 was > 100 µM (inactive) with ACHN; > 100 µM (inactive) with SF-268; > 100 µM (inactive) with SF-295; 71.3 µM (inactive) with HOP-92; > 100 µM (inactive) with 786-0; > 100 µM (inactive) in the test on A549. Further, the GI50 in the test with MDA-MB-435 and in the test with M14 was > 100 µM (inactive) throughout.
For the molecule `CCCCN(CCCC)C1(c2cc3ccccc3s2)CCCCC1.[O-][Cl+3]([O-])([O-])O`, the GI50 with NCI/ADR-RES is 17.7 µM (inactive); in the test with MOLT-4, 13.6 µM (inactive); with OVCAR-3 it was 15.7 µM (inactive); in the test with SK-MEL-2, 19.8 µM (inactive); in the test with COLO 205, 14.9 µM (inactive); in the test on SK-OV-3, 20.4 µM (inactive). Also, the GI50 in the test on IGROV-1 was 15.5 µM (inactive); in the test on A498, 19.3 µM (inactive); in the test with KM12, 16 µM (inactive); in the test on DU-145, 16.3 µM (inactive); with U-251, 17.3 µM (inactive); in the test on OVCAR-8 it was 18.7 µM (inactive). Also, the GI50 with ACHN was 16.6 µM (inactive); with SF-268, 19.2 µM (inactive); with SF-295, 13.2 µM (inactive); with HOP-92, 12.5 µM (inactive); in the test on 786-0, 13.7 µM (inactive); with A549, 18.2 µM (inactive). Also, the GI50 is 13.3 µM (inactive) in the test on MDA-MB-435 and 14.6 µM (inactive) with M14.
On to `NCCSc1nc(-c2ccccc2)c(-c2ccccc2)o1`, for which the GI50 with NCI/ADR-RES is > 100 µM (inactive); in the test on OVCAR-3, > 100 µM (inactive); in the test on SK-MEL-2, > 100 µM (inactive); with COLO 205, > 100 µM (inactive); in the test with SK-OV-3 it was 73.3 µM (inactive); with IGROV-1, 71.4 µM (inactive). For the same molecule, the GI50 in the test with A498, in the test on KM12, in the test with DU-145, in the test with U-251, in the test on OVCAR-8 and in the test with ACHN was > 100 µM (inactive) in each case. For the same molecule, the GI50 in the test with SF-268 is > 100 µM (inactive); in the test on SF-295, > 100 µM (inactive); in the test with HOP-92, > 100 µM (inactive); in the test on 786-0, 32.1 µM (inactive); with A549, > 100 µM (inactive); in the test on MDA-MB-435 it was > 100 µM (inactive). Also, the GI50 in the test with M14 is > 100 µM (inactive).
For the molecule `CC(CS(=O)(=O)Cc1ccccc1)C(N)=O` (stereo unspecified), the GI50 in the test on NCI/ADR-RES, in the test on MOLT-4, in the test on OVCAR-3, with SK-MEL-2, in the test on COLO 205 and in the test with SK-OV-3 was > 100 µM (inactive) each time. Moreover, the GI50 in the test with IGROV-1, in the test with A498, with KM12, with DU-145, in the test on U-251 and in the test with OVCAR-8 was > 100 µM (inactive) in each case. In addition, the GI50 with ACHN, in the test with SF-268, in the test with SF-295, in the test on HOP-92, in the test on 786-0 and with A549 was > 100 µM (inactive) each time. Also, the GI50 in the test with MDA-MB-435 and with M14 was > 100 µM (inactive) each time.
`C#CCn1c(=O)c2ccccc2n(CC#C)c1=O`: the GI50 in the test with NCI/ADR-RES, in the test on MOLT-4, with OVCAR-3, in the test on SK-MEL-2, with COLO 205 and in the test on SK-OV-3 was > 10 µM (inactive) in each case. Also, the GI50 in the test with IGROV-1, in the test on A498, in the test with KM12, in the test on DU-145, in the test with U-251 and with OVCAR-8 was > 10 µM (inactive) each time. For the same molecule, the GI50 in the test with ACHN, with SF-268, in the test on SF-295, with HOP-92, in the test on 786-0 and with A549 was > 10 µM (inactive) throughout. The GI50 in the test on MDA-MB-435 and in the test on M14 was > 10 µM (inactive) in each case.
Take `CN(C)c1ccc(C2C(Cl)C(=O)N2NC(=O)c2c(Cl)c(Cl)c(Cl)c(Cl)c2-c2nc3ccccc3[nH]2)cc1` (stereo unspecified): the GI50 was 21.6 µM (inactive) in the test on NCI/ADR-RES; 2.68 µM (inactive) in the test with MOLT-4; 19.4 µM (inactive) in the test with OVCAR-3; 21.8 µM (inactive) in the test on SK-MEL-2; 7.67 µM (inactive) in the test with COLO 205; 33.7 µM (inactive) in the test with SK-OV-3. In addition, the GI50 was 1.62 µM (inactive) with IGROV-1; 22.3 µM (inactive) with A498; 17.9 µM (inactive) with KM12; 6.92 µM (inactive) in the test with DU-145; 2.4 µM (inactive) with OVCAR-8; 15.8 µM (inactive) with ACHN. The GI50 in the test with SF-268 is 11.5 µM (inactive); in the test with SF-295 it was 42.6 µM (inactive); in the test with HOP-92, 5.4 µM (inactive); in the test with 786-0, 2.56 µM (inactive); in the test on A549, 31.6 µM (inactive); in the test on MDA-MB-435, 4.76 µM (inactive). For the same molecule, the GI50 with M14 was 13.3 µM (inactive).
Regarding `CC(=O)N1CC(=O)N2C(=O)/C(=C/c3ccc(Cl)cc3)N=C12`, the GI50 with NCI/ADR-RES is > 100 µM (inactive); with MOLT-4, 48.3 µM (inactive); in the test with OVCAR-3, > 100 µM (inactive); with SK-MEL-2, > 100 µM (inactive); in the test with COLO 205, > 100 µM (inactive); with SK-OV-3 it was > 100 µM (inactive). The GI50 with A498, with KM12, with DU-145, with U-251, with OVCAR-8 and in the test on ACHN was > 100 µM (inactive) each time. Further, the GI50 in the test on SF-268, in the test on SF-295, in the test on HOP-92, in the test on 786-0, in the test on A549 and in the test on MDA-MB-435 was > 100 µM (inactive) throughout. Also, the GI50 in the test with M14 is > 100 µM (inactive).
`CCOC(=O)Nc1c(C#N)[n+]([O-])c2cc(Cl)c(Cl)cc2[n+]1[O-]`: the GI50 was 20.7 µM (inactive) in the test with NCI/ADR-RES; 8.71 µM (inactive) in the test with MOLT-4; 20.1 µM (inactive) with OVCAR-3; 17.7 µM (inactive) in the test with SK-MEL-2; 15 µM (inactive) in the test with COLO 205; 24.2 µM (inactive) with SK-OV-3. The GI50 with IGROV-1 was 13.1 µM (inactive); in the test with A498 it was 7.69 µM (inactive); with KM12, 18.2 µM (inactive); with DU-145, 32.5 µM (inactive); in the test on U-251, 14.3 µM (inactive); in the test on OVCAR-8 it was 13.4 µM (inactive). Further, the GI50 in the test on SF-268 is 15.3 µM (inactive); in the test on SF-295, 14.6 µM (inactive); in the test with HOP-92, 5.4 µM (inactive); in the test on 786-0 it was 15.6 µM (inactive); in the test on A549, 22 µM (inactive); in the test on MDA-MB-435, 16.4 µM (inactive). Also, the GI50 in the test on M14 is 16.9 µM (inactive).
